Measured values published in patent publication US9290528B1, “Light-activated compounds” (University of Kentucky Research Foundation, priority 2013, dated 2016).
pIC50: −log10 of the molar value. Where “and” joins values, the source holds several entries; their conditions need not be identical. Equal entries are not always repeated. Where two headings read alike, the source gives them in different places. One block for each compound: values may come before it.

What was measured:
[1] = tested on: HL60 promyelocytic leukemia cell line; assay: Cell survival assay, HL60; type: cell-based
Method: (§1) The HL60 promyelocytic leukemia cell line was obtained from ATCC and cultured in IMDM media (Invitrogen; Carlsbad, Calif.) supplemented with 10% serum supreme (Lonza; Basel, Switzerland) and penicillin/streptomycin at 37° C. with 5% CO2. The A549 cell line was donated and cultured in DMEM supplemented with glutamax, 10% serum supreme, and penicillin/streptomycin at 37° C. with 5% CO2. Cells were plated in Optimem (Life Technologies; Carlsbad, Calif.) supplemented with 1% serum supreme and penicillin/streptomycin at 30,000 cells per well in Costar 96 well flat bottom clear tissue culture treated plates for HL60 and 1500 cells/well for A549. […] The cells were then incubated for 72 hours followed by the addition of Cell Titer Glo (Promega; Madison, Wis.) to determine viability. Dark controls were run in parallel. The resulting luminescence was measured using the SpectraFluor Plus Plate Reader (Tecan). Data were fit to an equation for a sigmoidal dose response using the equation below, where yi and yf are the initial and final signal intensities.
(§2) Cell cytotoxicity studies were performed in HL60 leukemia cells and A549 lung cancer cells (see FIG. 7 and Table 3). Cells were incubated with compounds for 12 hours in the dark before irradiated with >450 nm light (410 W) for 3 minutes. Dark controls were run in parallel. Cell survival was quantified 72 hours later through the use of an ATP luciferase assay, and confirmed by Trypan Blue staining and manual counting.

pUC19 plasmid [2] = assay: Glutathione assay: pUC19 crosslinking with increasing GSH; type: biochemical; details: 30 μM compound, 0.01-40 mM GSH; 4 light-activated
Method: The concentrations of GSH were 0.01, 0.1, 1, 10, 40 mM, giving a molar ratio between the compounds and glutathione of a) 1:0.3, b) 1:3.3, c) 1:33, d) 1:333, e) 1:1333. […] Control reactions with pUC19 in the presence and absence of GSH were carried out for 12 hrs in the dark with 25 μg/ml plasmid and 40 mM GSH in 10 mM phosphate buffer, pH 7.5. The plasmid was resolved on a 1% agarose gel as described above.
(§3) The photoactivated DNA crosslinking Ru(bpy)2 species retained its ability to damage DNA, even at higher GSH concentrations.

[3] = tested on: HL60 leukemia cells and A549 lung cancer cells; assay: Cell cytotoxicity studies, summary over HL60 and A549; type: cell-based
Method: as §1, §2

A549 cells [4] = assay: Glutathione assay in A549 cells (cytoprotection); type: cell-based; details: co-dosed with increasing GSH
[5] = Interaction of prodrug compounds with GSH by UV/Vis spectroscopy; type: physicochemical; details: period of days
Description: as §3

[6] = Light and dark cytotoxicity of exemplary compounds (Table 6); type: cell-based; details: for pIC50: cell line not stated; for Phototoxicity Index: dark IC50/light IC50
Description: This Example describes additional specific embodiments the presently-disclosed subject matter. […] The methods for making and characterizing the compounds are based on the methodologies described in the previous examples.

A549 lung cancer cells = assay: Cell survival assay, A549 monolayer; type: cell-based
Method: as §1, §2

A549 tumor spheroids = assay: A549 tumor spheroid cytotoxicity; type: cell-based
Method: A549 cells were seeded at 2,500 cells/well in 1.5% agarose coated 96-well plates. After 7 days the spheroids were dosed with compounds and incubated for 12 hrs. […] Cellular viability was determined 72 hours after light activation for the irradiated samples and at the same time point for the dark samples by measuring ATP concentration with CellTiter Glo (Promega). Data were fit to an equation for sigmoidal dose response shown above using the Prism software package.
3D tumor spheroids were used to test the compounds. Spheroids provide a system that approximates the complexity of in vivo tumors. These spheroids mimic the pathophysiology of tumors, including hypoxic/necrotic regions, changes in cell shape, high proportions of quiescent cells, alterations in gene expression profiles, and diminished permeability to drugs. […] To characterize the light-activated ruthenium compounds under more challenging and biologically relevant conditions, efficacy was assessed in a 3D tumor model by forming tumor spheroids with A549 cells.
Spheroids of about 600 μm in diameter were dosed with compounds and then either kept in the dark or irradiated with >450 nm light for 3 minutes.

pUC19 plasmid [7] = assay: Plasmid-compound gel analysis (Example 2); details: visible light 200 W, 1 hour
[8] = Photoejection followed by UV/Vis absorption spectroscopy (Example 2); details: >450 nm light
HL60 cells [9] = assay: Western blot of PARP and caspase 3 cleavage; type: cell-based, human; details: for 55 kDa PARP fragment (marker for necrosis): protected from light and irradiated
Method: Given the different cellular localization properties and time profiles for cell death induced by 9 and 10, the mechanism of cell death was investigated. Indicators of apoptotic cell death (activation of PARP and caspase 3 through proteolysis) were determined in HL60 cells treated with either 9 or 10 (FIGS. 15A and 15B).
The generation of an alternate 55 kDa PARP fragment was determined by immunoblot as a marker for necrosis with 10% (v/v) ethanol used as a control that induces necrosis.

pUC19 plasmid DNA = pUC19 plasmid DNA damage by gel electrophoresis (Example 4); type: biochemical; details: for DNA damage when exposed to light: 40 J/cm^2 >400 nm light
Method: Their DNA damaging properties were assessed with pUC19 plasmid DNA using gel electrophoresis. […] Samples were then incubated for 24 hours at room temperature protected from light. Controls were prepared to simulate single and double strand DNA breaks, and the DNA samples resolved on agarose gels. Samples were resolved using 1% agarose gels prepared in tris-acetate (TA) buffer. Each lane was loaded with 0.3 μg of pUC19 and the samples run for 90 minutes at […]. The gels were stained with 500 ng/mL ethidium bromide in TA buffer at room temperature for 40 minutes. […] In contrast, 10 is a more hydrophilic molecule, and the negatively charged sulfonate functional groups were anticipated to cause electrostatic repulsions between the complex and the negatively charged backbone of the DNA. DNA precipitation or smearing was not observed with up to 500 μM of […] (FIG. 12B).

Log P = type: physicochemical
HL60 cells [10] = assay: Genomic DNA laddering by gel electrophoresis; type: cell-based, human; details: dark / not irradiated
Description: To further analyze the mechanisms of cell death induced by 9 and 10, the degradation pattern of genomic DNA was investigated. DNA laddering was observed as a result of DNA fragmentation stemming from the execution phase of apoptosis. In contrast, necrotic cell death lacked this characteristic laddering effect, allowing differentiation between these two mechanisms. […] This laddering was absent in the cells treated with ethanol and compounds 9 and 10 in the dark. […] In contrast, given the cytotoxicity of 9 in the dark and the presence of the 55 kDa PARP fragment, it appears that necrotic cell death is one pathway for […]. For compound 10 the absence of DNA laddering may be a result of the lack of cytotoxicity of the negatively charged compound.

HL60 cells [11] = assay: Cell viability as a function of time; type: cell-based, human; details: irradiated; for cell viability: 2 hours
A549 cells [12] = assay: Uptake and subcellular localization by Apoptome microscopy; type: cell-based, human
Method: The emission of 9 and 10 was measured in A549 cells using an Apoptome microscope. The relative rates of uptake of each of the complexes were analyzed as a function of time, and both 9 and 10 were visible inside cells as early as 2 hours after compound addition, consistent with the flow data and the ICP-OES results. Images were taken at 2, 8, 18 and 24 hours, and intracellular levels of both complexes appeared to plateau around 8 hours.
Differences in the intracellular localization of 9 and 10 were evaluated by determining colocalization of luminescence of the compound and fluorescent markers of organelles in A549 cells. Overlap in signals between the compounds, cellular nucleus, mitochondria and lysosome was measured over a 24 hour period.

HL60 cells [13] = tested on: HL60 cells
HL60 cells [14] = assay: Mitochondrial membrane potential (TMRE); type: cell-based, human; details: for effect on mitochondrial potential: dark and irradiated
Description: FIGS. 14A to 14D includes charts showing mitochondrial potential and cell viability of HL60 cells as a function of time for (FIG. 14A) 9, dark, (FIG. 14B) 9, irradiated; (FIG. 14C) 10, dark; (FIG. 14D) 10, irradiated. TMRE was used to quantify membrane potential; values are relative to a no-compound control value of 100.
TMRE is a cationic dye that accumulates in active motochondria as a result of the negative membrane potential (Δψm).

HL60 cells [15] = tested on: HL60 cells; remark: listed apart in the source
15 mer oligonucleotide A = type: physicochemical
Description: (§4) The G-quadruplex sequence is [NT].

[16] = tested on: G-quadruplex [AGGG(TTAGGG)3]; type: physicochemical
Description: as §4

CT DNA = assay: DNA binding affinity (Kb) with CT DNA; set-up: species or system calf; details: racemic mixtures
Description: Intercalation of both complexes was consistent with the reduced mobility of supercoiled plasmid DNA in agarose gels, and the modulation of the absorption spectra in the presence of DNA, characterized by hypochromism of both the π-π* of the dppz ligand and the MLCT transitions, with maximal effect at a ratio of 2:1 DNA base pairs to metal center. Thus, the strained complex retained DNA-sensing capabilities of other Ru^II “light-switch” molecules and photochemical reactivity.

[17] = Photoejection half-life of 8 in solvents; type: physicochemical; details: D2O vs H2O
Description: The photochemical behaviour of 8 paralleled the photophysical characteristics of unstrained Ru^II complexes containing the dppz ligand.

calf thymus (CT) DNA = type: physicochemical; details: bovine

Compound: Cc1cccc(-c2cccc(C)n2)n1.F[P-](F)(F)(F)(F)F.F[P-](F)(F)(F)(F)F.[Ru+2].c1ccc(-c2ccccn2)nc1.c1ccc(-c2ccccn2)nc1 [Compound 4, Ru(bpy)2-6,6′dmbpy]
- pIC50 ([1]; 3 min >450 nm light, 72 hours, read-out: Light IC50 HL60): 5.80
- pIC50 ([1]; dark, read-out: Dark IC50 HL60): < 3.52
- Phototoxicity Index, PI HL60 ([1]; ratio of dark and light IC50): >188
- plasmid DNA crosslinking in presence of increasing GSH (pUC19 plasmid [2]): greater DNA binding than cisplatin
- activity light versus dark ([3]; >450 nm light 3 minutes vs dark): light-triggered toxicity
- IC50 values after irradiation ([3]; after irradiation): single μM IC50 values
- dark toxicity (none observed up to this concentration) ([3]; dark): > 300 µM
- effect of GSH on cytotoxicity (A549 cells [4]): not
- interaction with GSH [5]: did not interact with GSH
- pIC50 ([6]; read-out: Dark IC50): 3.52
- pIC50 ([6]; read-out: Light IC50): 5.82
- Phototoxicity Index [6]: 200
- pIC50 (A549 lung cancer cells; 3 min >450 nm light, 72 hours, read-out: Light IC50 A549): 5.96
- pIC50 (A549 lung cancer cells; dark, read-out: Dark IC50 A549): 3.82
- Phototoxicity Index, PI A549 (A549 lung cancer cells; ratio of dark and light IC50): 136
- pIC50 (A549 tumor spheroids; 3 min >450 nm light, 72 hours, read-out: Light IC50 A549 spheroid): 4.68 and 4.67
- pIC50 (A549 tumor spheroids; dark, read-out: Dark IC50 A549 spheroid): < 3.52
- MCR Index (A549 tumor spheroids; ratio of spheroid and monolayer culture IC50): 19.4
- type of DNA damage upon visible light (pUC19 plasmid [7]): DNA photobinding
- reaction kinetics of 4 relative to 5 [8]: 30 fold

Compound: O=S(=O)([O-])c1ccc(-c2ccnc3c2ccc2c(-c4ccc(S(=O)(=O)[O-])cc4)ccnc23)cc1.O=S(=O)([O-])c1ccc(-c2ccnc3c2ccc2c(-c4ccc(S(=O)(=O)[O-])cc4)ccnc23)cc1.O=S(=O)([O-])c1ccc(-c2ccnc3c2ccc2c(-c4ccc(S(=O)(=O)[O-])cc4)ccnc23)cc1.[Ru+2] [Compound 10, Ru(bathophenanthorlinedisulfonate)3]
- PARP and caspase 3 activation (HL60 cells [9]; absence of light): did not display PARP or caspase 3 cleavage
- PARP and caspase 3 activation (HL60 cells [9]; irradiated): induced PARP as early as 2 hours
- 55 kDa PARP fragment (marker for necrosis) (HL60 cells [9]): lower level of the 55 kDa PARP fragment
- DNA damage when exposed to light (pUC19 plasmid DNA): induced single strand DNA breaks
- Log P (Log P): −2.2 ± 0.12
- genomic DNA laddering (HL60 cells [10]): absent
- cell viability (HL60 cells [11]): 70±12%
- viable cells remaining (HL60 cells [11]; 24 hours): 70% and 59±4%
- viable cells remaining (HL60 cells [11]; 48 hours): 55%
- time at which intracellular levels plateau (A549 cells [12]): around 8 hours
- amount within the cells after irradiation (HL60 cells [13]): 1.6%
- effect on mitochondrial potential (HL60 cells [14]): did not significantly reduce the mitochondrial potential
- increase of average emission of cells between 2 and 24 hours (HL60 cells [15]): 4 fold

- Log P (Log P): 1.8 ± 0.02
Compound: Ru(bathophenanthroline)3 [Compound 9]
- PARP and caspase 3 activation (HL60 cells [9]; absence of light): after 18 and 24 hours and to a lesser degree
- PARP and caspase 3 activation (HL60 cells [9]; irradiated): induced the proteolytic activation of both PARP and caspase 3 within 2 hours of irradiation
- 55 kDa PARP fragment (marker for necrosis) (HL60 cells [9]): produced this fragment at significant levels
- DNA damage when exposed to light (pUC19 plasmid DNA): induced single strand DNA breaks
- concentrations at which precipitation of the complex with the DNA was observed (pUC19 plasmid DNA; light and dark): above 31.3 μM
- genomic DNA laddering (HL60 cells [10]): absent
- time to cell death after irradiation (HL60 cells [11]): ≤ 2 h
- cell viability (HL60 cells [11]): about 0%
- time at which intracellular levels plateau (A549 cells [12]): around 8 hours
- effect on mitochondrial potential (HL60 cells [14]): rapid and complete depolarization of mitochondria
- mitochondrial function (HL60 cells [14]; dark, 2 hours post treatment): completely impaired
- mitochondrial function (HL60 cells [14]; within 2 hours of irradiation): about 0%

- Half-life (15 mer oligonucleotide A): 31 ± 0.5 min
- Half-life [16]: 13.5 min
- Kb (CT DNA): 3e+07 M⁻¹
- Half-life (calf thymus (CT) DNA): 41 ± 2 min
- t1/2 values (calf thymus (CT) DNA): 31 to 41 min
Compound: Ru(bpy)2dmdppz [Compound 8]
- increase of photoejection rate compared to CT DNA ([16]; bound to G-quadruplex): 3 fold
- isotope effect of ejection [17]: > 3.4
- pIC50 ([6]; read-out: Dark IC50): 4.19
- pIC50 ([6]; read-out: Light IC50): 4.85
- Phototoxicity Index [6]: 4.6
